Where two headings read alike, the source gives them in different places.
Legend:
[1] = tested on: HCT116p53-/- P53-knockout colorectal carcinoma cells; assay: Sulforhodamine B antiproliferative assay, HCT116p53-/-; format: cell-based, human; settings: 24 h drug exposure + 72 h recovery, SRB, read-out: Antiproliferative activity (IC50) HCT116p53-/- Colon
[2] = tested on: HCT116p21-/- P21-knockout colorectal carcinoma cells; assay: Sulforhodamine B antiproliferative assay, HCT116p21-/-; format: cell-based, human; settings: 24 h drug exposure + 72 h recovery, SRB, read-out: Antiproliferative activity (IC50) HCT116p21-/- Colon
[3] = tested on: A2780Cis cisplatin-resistant ovarian carcinoma cells; assay: Sulforhodamine B antiproliferative assay, A2780Cis; format: cell-based, human; settings: 24 h drug exposure + 72 h recovery, SRB
[4] = tested on: HCT116 colorectal carcinoma cells; assay: Sulforhodamine B antiproliferative assay, HCT116; format: cell-based, human; settings: 24 h drug exposure + 72 h recovery, SRB; read-out: Antiproliferative activity (IC50) HCT116 Colon
[5] = tested on: A549 lung carcinoma cells; assay: Sulforhodamine B antiproliferative assay, A549; format: cell-based, human; settings: 24 h drug exposure + 72 h recovery, SRB
[6] = tested on: MRC5 human lung fibroblasts; assay: Sulforhodamine B antiproliferative assay, MRC5; format: cell-based; settings: 24 h drug exposure + 72 h recovery, SRB; non-cancer fibroblasts
Experimental: (§1) In vitro biological studies
(§2) Sulforhodamine B cell viability colorimetric assay.
(§3) by ICP-OES analysis for metal content).
(§4) 72 h recovery time (310 K).
(§5) using slowly-running tap water and air dried.
(§6) Data were processed using Microsoft Excel
IC50 values (concentrations at which […]
After this time, cells were […]

[7] = tested on: Tubingen wild-type zebrafish embryos; assay: Zebrafish embryo toxicity (FET) test, TU-WT; format: in vivo; settings: 96 h exposure, read-out: LC50 (Danio rerio) TU-WT
[8] = tested on: HOF human ovarian fibroblasts; assay: Sulforhodamine B antiproliferative assay, HOF; format: cell-based; settings: 24 h drug exposure + 72 h recovery, SRB; non-cancer fibroblasts
Experimental: as §1, §2, §3, §4, §5, §6

[9] = tested on: A2780 ovarian carcinoma cells; assay: Sulforhodamine B antiproliferative assay, A2780; format: cell-based, human; settings: SRB
[10] = tested on: AB wild-type zebrafish embryos; format: in vivo; settings: 96 h exposure, read-out: LC50 (Danio rerio) AB-WT
[11] = tested on: Singapore wild-type zebrafish embryos; format: in vivo, Danio rerio; settings: zebrafish embryos, 96 h exposure; read-out: LC50 (Danio rerio) SG-WT
Experimental: In vivo biological studies […]
wild-type zebrafish (SGWT) embryos (< 5 dpf). All animals were maintained in accordance with ASPA […]
maintained. Light cycle: 14 hours day, 10 hours night.
1 L breeding tank. Pairs were set up the previous evening. Males and females were separated by a divider. The divider was removed around 9am (dawn). Embryos were collected and placed into petri dishes with fresh egg water. […]

[12] = tested on: HCT116Ox oxaliplatin-resistant colorectal carcinoma cells; assay: Sulforhodamine B antiproliferative assay, HCT116Ox; format: cell-based, human; settings: 24 h drug exposure + 72 h recovery, SRB, read-out: Antiproliferative activity (IC50) HCT116Ox Colon
[13] = tested on: A2780 cancer cells; assay: ROS/superoxide detection by flow cytometry, A2780; settings: A2780, 24 h, 1.0 × IC50 (pyocyanin positive control 0.1 mM); for % Population Q2 FL1-H+ / FL2-H+: ROS and superoxide; for % Population Q1 FL1-H- / FL2-H+: superoxide only; for % Population Q3 FL1-H+ / FL2-H-: total ROS only
Experimental: (§7) Reactive oxygen species (ROS) determination using flow cytometry. The generation of ROS and
(§8) superoxide in A2780 ovarian cancer cells was evaluated using the ROS/Superoxide detection kit (Enzo
(§9) Life Sciences) following the manufacturer’s protocol.
(§10) cells per well, and incubated for 24 h (310 K). After this time, cells were exposed to equipotent
The pellets were re-suspended in 500
(§11) μL PBS and stained with green fluorescent reagent for total ROS reading in the FL1-green channel (2
(§12) μL) and orange fluorescent reagent for superoxide reading in the FL2-red channel (2 μL). Positive
(§13) control samples were treated with pyocyanin (5 μL, 30 min). Single stained positive control samples
(§14) were used for compensation purposes. Data were obtained using a Becton Dickson FACScan Flow
(§15) Cytometer and processed using FlowJo V10 for Windows.

[14] = tested on: HOF human ovarian fibroblasts; assay: ROS/superoxide detection by flow cytometry, HOF; settings: 24 h, 1.0 × IC50 (pyocyanin positive control 0.1 mM); for % Population Q2 FL1-H+ / FL2-H+: ROS and superoxide; for % Population Q1 FL1-H- / FL2-H+: superoxide only; for % Population Q3 FL1-H+ / FL2-H-: total ROS only
Experimental: as §7, §8, §9, §10
The pellets were re-suspended in 500
as §11, §12, §13, §14, §15

[15] = CV vs Ag/AgCl, 100 mV/s, 10^–3 M, CH3CN; electrochemically reversible
[16] = 24 h drug exposure + 72 h recovery in drug-free medium, read-out: Antiproliferative activity (IC50) A2780 Ovarian

| Molecule | IC50 [1] [µM] | IC50 [2] [µM] | IC50 [3] [µM] | IC50 [4] [µM] | IC50 [5] [µM] | IC50 [6] [µM] | LC50 [7] [µM] | IC50 [8] [µM] | IC50 [9, 16] [nM] | LC50 [10] [µM] | LC50 [11] [µM] | IC50 [12] [µM] | further results |
| --- | --- | --- | --- | --- | --- | --- | --- | --- | --- | --- | --- | --- | --- |
| CS(=O)(=O)[N]1[Os][NH][C@H](c2ccccc2)[C@H]1c1ccccc1.Cc1ccc(C(C)C)cc1 [Complex 2, [Os(p-cymene)(Ms-DPEN)]] | 56 ± 6 | 71 ± 5 | 39.4 ± 0.6 | 67 ± 1 | 31 ± 1 | 26 ± 0.4 | 2.8 ± 0.5 | > 50 | 30000 ± 2000 | 2.8 ± 0.6 | 3.5 ± 0.4 | 56 ± 5 | – |
| Cc1ccc(C(C)C)cc1.[NH-]C(c1ccccc1)C([N-]S(=O)(=O)c1ccc([N+](=O)[O-])cc1)c1ccccc1.[Os+2] (stereo not drawn) [Complex 3, [Os(p-cymene)(Ns-DPEN)]] | 53 ± 3 | 63 ± 4 | 21.1 ± 0.3 | 67 ± 1 | 27 ± 2 | 21.9 ± 0.7 | – | > 50 | 19900 ± 500 | 3.9 ± 0.3 | 1.9 ± 0.3 | 64 ± 5 | – |
| Cc1ccc(C(C)C)cc1.O=S(=O)(c1ccc(F)cc1)[N]1[Os][NH][C@H](c2ccccc2)[C@H]1c1ccccc1 [Complex 4, [Os(p-cymene)(Fb-DPEN)]] | 39.4 ± 0.6 | 70 ± 3 | 15 ± 2 | 49 ± 3 | 31.5 ± 0.4 | 35 ± 1 | 1.5 ± 0.3 | 48 ± 3 | 17000 ± 1000 | 3 ± 0.5 | 0.7 ± 0.2 | 54 ± 2 | – |
| Cc1ccc(C(C)C)cc1.O=S(=O)(c1ccccc1)[N]1[Os][NH][C@H](c2ccccc2)[C@H]1c1ccccc1 [Complex 5, [Os(p-cymene)(Bs-DPEN)]] | 48 ± 2 | 54.3 ± 0.9 | 21 ± 1 | 49 ± 6 | 26.3 ± 0.5 | 31.3 ± 0.2 | 1.5 ± 0.3 | 19.9 ± 0.9 | 13500 ± 900 | – | 0.8 ± 0.2 | 52 ± 0.8 | – |
| Cc1ccc(S(=O)(=O)[N]2[Os][NH][C@H](c3ccccc3)[C@H]2c2ccccc2)cc1.c1ccc(-c2ccccc2)cc1 [Complex 7, [Os(biphenyl)(Ts-DPEN)]] | 40 ± 6 | 90 ± 1 | 25.9 ± 0.7 | 26.1 ± 0.3 | 22.4 ± 0.7 | 15.1 ± 0.5 | 3.3 ± 0.4 | 44 ± 1 | 6500 ± 300 | 3.5 ± 0.8 | – | 46.2 ± 0.7 | – |
| Cc1ccc(S(=O)(=O)[N]2[Os][NH][C@H](c3ccccc3)[C@H]2c2ccccc2)cc1.c1ccc(-c2cccc(-c3ccccc3)c2)cc1 [Complex 8, [Os(terphenyl)(Ts-DPEN)]] | – | – | 10.4 ± 0.5 | 41.2 ± 0.7 | 25.5 ± 0.3 | 9.7 ± 0.2 | – | 24.3 ± 0.4 | 4400 ± 300 | – | 0.7 ± 0.2 | – | – |
| CN(C)c1ccc(N=Nc2ccccn2)cc1.Cc1ccc(C(C)C)cc1.F[P-](F)(F)(F)(F)F.[Cl][Os+] [Complex 9, [Os(Azpy-NMe2)(p-cymene)Cl]PF6] | 3.2 ± 0.3 | 4 ± 0.3 | 0.37 ± 0.03 | 21.9 ± 0.7 | 36.6 ± 0.8 | 7.1 ± 0.2 | 12 ± 1 | 11.1 ± 0.9 | 1800 ± 100 | 14 ± 2 | 13.61 ± 0.09 | 5.8 ± 0.7 | % Population Q4 FL1-H- / FL2-H- [13]: 0 ± 0%; % Population Q2 FL1-H+ / FL2-H+ [13]: 97.0 ± 0.2%; % Population Q1 FL1-H- / FL2-H+ [13]: 0 ± 0%; % Population Q3 FL1-H+ / FL2-H- [13]: 3.0 ± 0.2%; % Population Q4 FL1-H- / FL2-H- [14]: 15 ± 1%; % Population Q2 FL1-H+ / FL2-H+ [14]: 13.8 ± 0.1%; % Population Q1 FL1-H- / FL2-H+ [14]: 11.7 ± 0.8%; % Population Q3 FL1-H+ / FL2-H- [14]: 60 ± 2% |
| CN(C)c1ccc(N=Nc2ccccn2)cc1.F[P-](F)(F)(F)(F)F.[Cl][Os+].c1ccc(-c2ccccc2)cc1 [Complex 11, [Os(Azpy-NMe2)(biphenyl)Cl]PF6] | 28 ± 1 | 67 ± 3 | 16.8 ± 0.2 | 7.2 ± 0.05 | 20 ± 1 | 16.9 ± 0.1 | 15.8 ± 0.9 | 27 ± 2 | 3900 ± 300 | 12 ± 1 | 16.8 ± 0.8 | 10 ± 0.9 | – |
| CN(C)c1ccc(N=Nc2ccccn2)cc1.F[P-](F)(F)(F)(F)F.[I][Os+].c1ccc(-c2ccccc2)cc1 [Complex 12, [Os(Azpy-NMe2)(biphenyl)I]PF6] | 0.39 ± 0.02 | 0.33 ± 0.02 | 0.11 ± 0.01 | 0.82 ± 0.09 | 0.27 ± 0.03 | 0.42 ± 0.03 | 6.5 ± 0.8 | 0.35 ± 0.02 | 140 ± 10 | 7.7 ± 0.1 | 6.6 ± 0.4 | 0.33 ± 0.05 | First reduction step potential [15]: ca. −0.4 V |
| F[P-](F)(F)(F)(F)F.Oc1ccc(N=Nc2ccccn2)cc1.[I][Os+].c1ccc(-c2ccccc2)cc1 [Complex 13, [Os(Azpy-OH)(biphenyl)I]PF6] | 0.13 ± 0.01 | 0.3 ± 0.01 | 0.13 ± 0.02 | 0.15 ± 0.01 | 0.52 ± 0.06 | 0.22 ± 0.01 | 7.2 ± 0.2 | 0.32 ± 0.09 | – | 7.4 ± 0.2 | 8 ± 0.1 | 0.14 ± 0.01 | IC50 ([9]; 24 h drug exposure + 72 h recovery, value in nM, read-out: IC50 in A2780): 140 nM |
| Cn1c2cccc(=O)c-2nc2ccccc21 [Pyocyanin, pyocyanin, reference compound] | – | – | – | – | – | – | – | – | – | – | – | – | % Population Q4 FL1-H- / FL2-H- [13]: 0.02 ± 0.01%; % Population Q2 FL1-H+ / FL2-H+ [13]: 99 ± 2%; % Population Q1 FL1-H- / FL2-H+ [13]: 0.03 ± 0.02%; % Population Q3 FL1-H+ / FL2-H- [13]: 0.00 ± 0.01%; % Population Q4 FL1-H- / FL2-H- [14]: 1.2 ± 0.5%; % Population Q2 FL1-H+ / FL2-H+ [14]: 90 ± 2%; % Population Q1 FL1-H- / FL2-H+ [14]: 8 ± 2%; % Population Q3 FL1-H+ / FL2-H- [14]: 1.2 ± 0.2% |
| N.N.O=C([O-])C1(C(=O)[O-])CCC1.[Pt+2] [carboplatin, reference compound] | – | – | – | – | – | – | 7.1 ± 0.7 | – | – | 10 ± 1 | 5.7 ± 0.9 | – | – |
| N.N.[Cl][Pt][Cl] [cisplatin, reference compound] | 36.7 | 9.2 ± 0.5 | 11.5 ± 0.2 | 5.1 ± 0.3 | 3.2 ± 0.1 | 13.5 ± 0.9 | – | – | 1200 | – | – | 23.4 ± 0.4 | – |
| [Os(p-cymene)(SRB-DPEN)] [Complex 6] | 34 ± 3 | 43 ± 3 | 27.2 ± 0.4 | 40.6 ± 0.1 | 16.8 ± 0.2 | – | – | – | 18000 ± 3000 | – | – | 35 ± 1 | – |

— article PMC6204601, “In Vivo Selectivity and Localization of Reactive Oxygen Species (ROS) Induction by Osmium Anticancer Complexes That Circumvent Platinum Resistance” (Journal of Medicinal Chemistry, 2018)
